# Reference: US11839210B1, “Plant growth promoter with strigolactones regulation activities” (King Abdullah University of Science and Technology, priority 2017, dated 2023)
# Key:
# [1] = test system: D10; test: qRT-PCR of D10 gene expression in rice roots after zaxinone treatment; assay type: in vivo, rice (Oryza sativa Nipponbare); details: −Pi, 6 h
# Experimental: For the analysis of SL transcript levels in the zas mutant, one week-old seedlings were grown hydroponically in half-strength modified Hoagland nutrient solution with K2HPO4·2H2O (+Pi) and without K2HPO4·2H2O (−Pi) for 7 days. Seedlings were further treated with zaxinone for 6 h and tissues were collected.
# Total RNA was extracted from the roots and shoots using a Qiagen Plant RNeasy Kit according to the manufacturer's instruction. cDNA was synthesized from 1 μg of total RNA using iScript cDNA Synthesis Kit (BIO-RAD Laboratories, Inc, 2000 Alfred Nobel Drive, Hercules, CA, Cat. No #170-8890) according to instructions in the user manual. For mycorrhizal samples, single-strand cDNA was synthesized from 1 μg of total RNA using Super-Script II (Invitrogen) according to instructions in the user manual. Primers used for real-time quantitative RT-PCR (qRT-PCR) analysis are listed below in Table 3. qRT-PCR was performed using SYBR Green Master Mix (Applied Biosystems; www.lifetechnologies.com) in a StepOnePlus (Life Technologies, Carlsbad, CA, USA). For mycorrhizal samples, qRT-PCR was performed using a Rotor-Gene Q 5plex HRM Platform (Qiagen). The 2-ΔCt method was used to calculate the relative gene expression levels and rice Ubiquitin (OsUBQ or OsRubQ1) gene was used as the internal control to normalize target gene expression.
# 14-day-old rice seedlings were transferred to new hydroponic pots containing fresh media with or without chemicals for 6 hours. SL biosynthetic (D27, D10, D17 and MAX1-Os900) gene expression were determined under −Pi conditions (phosphate deficient) with zaxinone (2.5 and 5 μM) treatment of both Nipponbare wild-type (WT) rice roots and zas mutant rice roots. The expression levels (1301) were detected by quantitative RT-PCR. Ubiquitin was used as a reference gene. Mock treatment (control) treatment consisted of 0.1% acetone. Bars (1302) show comparisons between the treatments and represent mean±SD (n=3). Decrease in SLs levels in the plants treated with zaxinone ranged from approximately 40% to 70%.
# [2] = test system: wild-type and zas mutant rice plants; test: Rescue of zas mutant phenotype, soil-grown rice in rhizotron root analysis system; assay type: in vivo, Oryza sativa Nipponbare; details: 10 μM zaxinone
# Experimental: Three days-old seedlings were grown in soil in Hoagland nutrient solution containing K2HPO4·2H2O (+Pi) with 10 μM zaxinone treatment. The solution was changed every other day for 2 weeks, adding the chemical at each renewal. Plants grown without zaxinone served as the controls and phenotypic data were recorded. To prevent zaxinone degradation from light exposure, 1 μl/ml emulsifier was added into the Hoagland nutrient solution.
compound,measurement,setting,value
"CC(=O)/C=C/C=C(C)/C=C/C1=C(C)C[C@@H](O)CC1(C)C [zaxinone, 3-OH-β-apo-13-carotenone]",decrease of D10 relative expression vs mock,"[1]; WT rice roots, 2.5 μM zaxinone",approximately 75%
same,D10 relative expression,"[1]; WT rice roots, 2.5 μM zaxinone, WT mock approx. 1.0",approximately 0.25
same,decrease of D10 relative expression vs mock,"[1]; WT rice roots, 5.0 μM zaxinone",~70%
same,D10 relative expression,"[1]; WT rice roots, 5.0 μM zaxinone, WT mock approx. 1.0",approximately 0.3
same,decrease of D10 relative expression vs mock,"[1]; zas mutant rice roots, 2.5 μM zaxinone",approximately 60%
same,D10 relative expression,"[1]; zas mutant rice roots, 2.5 μM zaxinone, zas mock approx. 2.5",approximately 1.0
same,decrease of D10 relative expression vs mock,"[1]; zas mutant rice roots, 5.0 μM zaxinone",~68%
same,D10 relative expression,"[1]; zas mutant rice roots, 5.0 μM zaxinone, zas mock approx. 2.5",approximately 0.8
same,shoots and roots vs untreated control seedlings (visual),[2]; wild-type seedlings,some improvement
same,shoots and roots vs untreated control seedlings (visual),[2]; zas mutant seedlings,substantial improvement
same,increase of shoot length over untreated seedlings,[2]; zas mutant,about 10 cm
same,shoot biomass vs untreated,[2]; zas mutant,doubled
same,root surface area,"[2]; zas mutant, untreated 15-20 cm^2",25-50 cm^2
